Data on two molecules can be found in patent US11186566B2, “Modulator of cystic fibrosis transmembrane conductance regulator, pharmaceutical compositions, methods of treatment, and process for making the modulator” (Vertex Pharmaceuticals Incorporated, priority 2016, dated 2021).

Entries after “also recorded” stand apart in the source; their conditions may differ. Like-named read-outs stand apart in the source and are kept apart here. Some results are limits rather than exact numbers.

Data set [1] deals with T1, F508del-CFTR (Homo sapiens (Human), UniProt P13569, DEL508-508). The experiment in a line: F508del-CFTR processing and trafficking in vitro (170 to 180 kDa band). Type of data set: cell-based. As to conditions: for increase in steady-state levels, fold of untreated levels: F508del/F508del-HBE cells, 16 to 24 hours. An excerpt: The CFTR protein delivered to the cell surface by Compound 1 alone or in combination with Compound II (Compound I/Compound II) was potentiated by Compound III.

A further data set is described as follows: Rat IV and PO PK studies. The format is in vivo, male Sprague-Dawley rats. As to conditions: male, Sprague-Dawley, plasma.
Data set [2] addresses T1, F508del-CFTR. Briefly: Ussing chamber chloride transport experiments in HBE cells. Type of data set: cell-based. The method, then: Ussing chamber experiments were performed on polarized airway epithelial cells expressing F508del to further characterize the F508del modulators identified in the optical assays. Non-CF and CF airway epithelia were isolated from bronchial tissue, cultured as previously described (Galietta, L. J. V., Lantero, S., Gazzolo, A., Sacco, O., Romano, L., Rossi, G. A., & Zegarra-Moran, O. (1998) In Vitro Cell. Dev. Biol. 34, 478-481), and plated onto Costar® Snapwell™ filters that were precoated with NIH3T3-conditioned media. After four days the apical media was removed and the cells were grown at an air liquid interface for >14 days prior to use. […] CF-HBE were isolated from patients homozygous for […] or compound heterozygous for F508del with an different disease causing mutation on the other allele.
HBE grown on Costar® Snapwell™ cell culture inserts were mounted in an Ussing chamber (Physiologic Instruments, Inc., San Diego, Calif.), and the transepithelial resistance and short-circuit current in the presence of a basolateral to apical Cl^− gradient (ISC) were measured using a voltage-clamp system (Department of Bioengineering, University of Iowa, Iowa). Briefly, HBE were examined under voltage-clamp recording conditions (Vhold=0 mV) at 37° C. The basolateral solution contained (in mM) 145 NaCl, 0.83 K2HPO4, 3.3 KH2PO4, 1.2 MgCl2, 1.2 CaCl2, 10 Glucose, 10 HEPES (pH adjusted to 7.35 with NaOH) and the apical solution contained (in mM) 145 NaGluconate, 1.2 MgCl2, 1.2 CaCl2, 10 glucose, 10 HEPES (pH adjusted to 7.35 with NaOH).
Typical protocol utilized a basolateral to apical membrane Cl^− concentration gradient. To set up this gradient, normal ringers was used on the basolateral membrane, whereas apical NaCl was replaced by equimolar sodium gluconate (titrated to pH 7.4 with NaOH) to give a large Cl^− concentration gradient across the epithelium. Modulators were added either to the basolateral side […] to assay or to the apical side during the assay. Forskolin (10 μM) was added to the apical side during the assay to stimulate CFTR-mediated Cl^− transport. […]

A further data set has as its target human PXR (Homo sapiens (Human), UniProt O75469). Briefly: PXR assay (PXR mediated CYP3A4 induction, DPX-2 cell line). The format is cell-based. As to conditions: DPX-2 cells, 48 hours, 0.1 to 60 μM. The method in brief: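 HepG2-derived DPX-2 cells stably carrying human PXR and a CYP3A4 promoter–luciferase reporter, exposed 48 h to 11 doses (0.1–60 μM); rifampicin positive control. Viability by fluorescence, then luciferase luminescence; reports max fold induction over vehicle and EC50.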

The nature of data set [3]: Metabolism of Compound 1 in vitro and in vivo. The procedure:
Compound 1 and the metabolites shown in the following table were prepared and tested.

Data set [4] addresses T1, F508del-CFTR. The experiment in a line: Membrane potential optical (fluorescent voltage sensing dye, FLIPR III) HTS assay for F508del-CFTR modulators. Type of data set: cell-based. The method in brief:
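NIH3T3 mouse fibroblasts stably expressing F508del-CFTR were seeded on matrigel-coated plates for 18–24 h at 37 °C. For correction assays they were cultured with or without compound for that period. Membrane potential was read on FLIPR III with voltage-sensing dyes, using a pH 7.4 NaCl/HEPES bath and a chloride-free gluconate substitute solution.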

Where [5] appears, read: Ussing Chamber, F508del/F508del-HBE cells.

T1 sequence (P13569 other isoform, or with tags, fused parts or gaps del F508-F508): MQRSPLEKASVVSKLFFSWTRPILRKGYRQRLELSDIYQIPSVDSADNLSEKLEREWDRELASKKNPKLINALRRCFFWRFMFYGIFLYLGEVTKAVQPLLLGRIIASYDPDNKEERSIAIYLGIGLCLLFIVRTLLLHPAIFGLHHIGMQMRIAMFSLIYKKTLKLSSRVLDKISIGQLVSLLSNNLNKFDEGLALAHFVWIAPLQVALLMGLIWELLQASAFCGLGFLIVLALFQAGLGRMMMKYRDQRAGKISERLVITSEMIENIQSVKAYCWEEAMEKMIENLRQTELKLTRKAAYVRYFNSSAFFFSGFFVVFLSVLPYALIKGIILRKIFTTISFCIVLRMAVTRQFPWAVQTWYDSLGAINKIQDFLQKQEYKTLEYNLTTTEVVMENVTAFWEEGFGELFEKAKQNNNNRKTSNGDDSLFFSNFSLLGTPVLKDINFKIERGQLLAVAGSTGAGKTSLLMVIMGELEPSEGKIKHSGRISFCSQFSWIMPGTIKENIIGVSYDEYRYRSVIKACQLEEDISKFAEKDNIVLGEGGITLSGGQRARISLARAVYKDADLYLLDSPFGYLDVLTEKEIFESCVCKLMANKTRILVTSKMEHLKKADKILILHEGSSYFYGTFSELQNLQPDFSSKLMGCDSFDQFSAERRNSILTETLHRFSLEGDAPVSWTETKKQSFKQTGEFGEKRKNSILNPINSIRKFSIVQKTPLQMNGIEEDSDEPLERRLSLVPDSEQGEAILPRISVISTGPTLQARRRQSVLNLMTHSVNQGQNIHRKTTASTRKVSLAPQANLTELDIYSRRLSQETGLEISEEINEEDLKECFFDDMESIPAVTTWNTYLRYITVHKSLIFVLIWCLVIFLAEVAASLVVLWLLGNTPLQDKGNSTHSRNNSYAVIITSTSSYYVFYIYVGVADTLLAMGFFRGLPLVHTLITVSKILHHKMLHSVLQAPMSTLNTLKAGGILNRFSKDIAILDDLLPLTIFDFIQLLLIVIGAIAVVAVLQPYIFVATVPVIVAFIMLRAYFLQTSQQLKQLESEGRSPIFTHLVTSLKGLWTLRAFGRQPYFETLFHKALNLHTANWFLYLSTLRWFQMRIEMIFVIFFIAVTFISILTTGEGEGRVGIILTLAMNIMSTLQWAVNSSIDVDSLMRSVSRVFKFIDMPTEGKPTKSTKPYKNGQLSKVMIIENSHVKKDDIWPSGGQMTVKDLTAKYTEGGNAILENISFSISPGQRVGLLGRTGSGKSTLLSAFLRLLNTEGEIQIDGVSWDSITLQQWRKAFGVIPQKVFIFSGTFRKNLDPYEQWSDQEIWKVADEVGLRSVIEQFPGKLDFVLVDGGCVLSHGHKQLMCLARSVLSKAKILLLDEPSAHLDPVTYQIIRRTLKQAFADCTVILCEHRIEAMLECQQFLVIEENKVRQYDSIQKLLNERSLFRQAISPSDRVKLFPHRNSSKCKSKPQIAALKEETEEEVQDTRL
Sequence of human PXR (O75469 whole entry): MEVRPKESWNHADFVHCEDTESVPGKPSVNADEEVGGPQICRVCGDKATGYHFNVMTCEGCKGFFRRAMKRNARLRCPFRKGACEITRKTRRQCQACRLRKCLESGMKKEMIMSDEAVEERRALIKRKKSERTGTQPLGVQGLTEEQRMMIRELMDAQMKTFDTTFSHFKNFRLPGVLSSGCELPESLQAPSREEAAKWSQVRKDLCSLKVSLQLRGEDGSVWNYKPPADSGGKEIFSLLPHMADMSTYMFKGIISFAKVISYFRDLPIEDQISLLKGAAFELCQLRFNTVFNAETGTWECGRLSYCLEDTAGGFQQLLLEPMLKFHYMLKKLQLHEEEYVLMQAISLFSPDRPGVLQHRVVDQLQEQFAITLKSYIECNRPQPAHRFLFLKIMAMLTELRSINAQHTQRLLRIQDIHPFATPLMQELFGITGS

For orientation: AUC means the area under the concentration-time curve, a measure of exposure. Read a low AUC as less exposure. What is called EC50 is the concentration needed to bring the measured effect to its halfway point. On to `C[C@@H]1CN(c2nc(-n3ccc(OCCC4(C(F)(F)F)CC4)n3)ccc2C(=O)NS(=O)(=O)c2ccccc2)C(C)(C)C1` [Compound 1, N-(benzenesulfonyl)-6-[3-[2-[1-(trifluoromethyl)cyclopropyl]ethoxy]pyrazol-1-yl]-2-[(4S)-2,2,4-trimethylpyrrolidin-1-yl]pyridine-3-carboxamide], for which the “increase in steady-state levels, fold of untreated levels” value is on record as 6.5 fold at F508del-CFTR [1] and 18.7 fold at F508del-CFTR [1] (Compound 1 in combination with 3 μM Compound II). Besides, at F508del-CFTR [1] (in vitro), the “processing and trafficking of F508del-CFTR” value is “improved the processing and trafficking of F508del-CFTR; also recorded: facilitates the processing and trafficking of F508del-CFTR”. The bioavailability in the data set “Rat IV and PO PK studies” (3 mg/kg, oral, read-out: Rat po % F) stood at 63%. Further, the clearance in the data set “Rat IV and PO PK studies” (intravenous, 3.0 mg/kg, read-out: Rat iv CL) was 1.6 mL/min/kg. In the data set “Rat IV and PO PK studies” (oral, 3 mg/kg), this molecule returned an area under the curve (AUC) of 21000 ng·h/mL. For the same molecule, at F508del-CFTR [2] (setting [5]), the chloride transport result is “enhanced chloride transport”. In addition, on F508del-CFTR [2] (setting [5]), the “effect on chloride transport in relation to the effect of Compound II” value was “additive to the effect of Compound II”. The “PXR Max Induction (% of rifampicin)” value on human PXR is 3 % of rifampicin. Further, the metabolism result in data set [3] is “metabolized both in vitro and in vivo, mostly by oxidative metabolism”. The concentration for a half-maximal effect (EC50) is less than 100 nM on F508del-CFTR [4] (F508del NIH 3T3 cells, assay 5A-A1, read-out: CFTRdF508 EC50); less than 3000 nM on F508del-CFTR [4] (F508del NIH 3T3 cells, assay 5A-A1, read-out: EC50); 30 nM at F508del-CFTR [4] (Table 7, Compound 1 and metabolites, read-out: CFTRdF508 EC50); 30 nM on F508del-CFTR [4] (Table 9, read-out: CFTR dF508 EC50). Besides, the Emax at F508del-CFTR [4] (NIH3T3, F508del NIH 3T3 cells, relative to Compound II, read-out: % Efficacy relative to Compound II) is not below 100%.
On to `CC(C)(C)c1cc(C(C)(C)C)c(NC(=O)c2c[nH]c3ccccc3c2=O)cc1O` [Compound III, N-(5-hydroxy-2,4-di-tert-butyl-phenyl)-4-oxo-1H-quinoline-3-carboxamide, reference compound], for which, on F508del-CFTR [2] (HBE cells), the “potentiation of F508del-CFTR delivered to the cell surface by Compound I alone or in combination with Compound II” value was “potentiated”.
